molecular target: recombinant Human Phosphodiesterase B2 (PDE4B2) (Homo sapiens, UniProt Q07343); experiment: Human Phosphodiesterase B2 Radiometric Assay; format: biochemical; settings: SPA assay, 0.1 μg/mL recombinant PDE4B2, 8 nM [3H]cyclic AMP, preincubated 30 min at 30 C, reaction 20 minutes; read-out: PDE4B2 pIC50 (converted)
Protocol: Human Phosphodiesterase B2 Radiometric Assay
The assay uses recombinant Human Phosphodiesterase B2 (PDE4B2) produced in house (PrAZL0163), stored at −20° C. This assay is based on the observation that 5′AMP, the product of the reaction catalysed by PDE4, binds preferentially to yttrium silicate SPA beads (Amersham Biosciences, UK) compared to the substrate, cAMP. Compounds at the appropriate concentration were preincubated at 30 C for 30 min with an assay buffer containing 50 mM HEPES (pH 7.5), 8.3 mM MgCl2, 1.7 mM EGTA, 0.01% (w/v) Brij® 35 and 0.1 μg/mL recombinant PDE4B2. The reaction was started by the addition of [3H]cyclic AMP to give a final concentration of 8 nM, and was stopped 20 minutes after the addition of the substrate by the addition of yttrium silicate SPA beads containing 18 mM Zn SO4. Bound [3H]cyclic AMP was measured using a Topcount NXT (Packard Bioscience, UK). IC50 values (presented in Table I) were determined using Xlfit3 curve fitting, using model 205.

Chain of recombinant Human Phosphodiesterase B2 (PDE4B2) (Q07343 1-564 isoform Q07343-2): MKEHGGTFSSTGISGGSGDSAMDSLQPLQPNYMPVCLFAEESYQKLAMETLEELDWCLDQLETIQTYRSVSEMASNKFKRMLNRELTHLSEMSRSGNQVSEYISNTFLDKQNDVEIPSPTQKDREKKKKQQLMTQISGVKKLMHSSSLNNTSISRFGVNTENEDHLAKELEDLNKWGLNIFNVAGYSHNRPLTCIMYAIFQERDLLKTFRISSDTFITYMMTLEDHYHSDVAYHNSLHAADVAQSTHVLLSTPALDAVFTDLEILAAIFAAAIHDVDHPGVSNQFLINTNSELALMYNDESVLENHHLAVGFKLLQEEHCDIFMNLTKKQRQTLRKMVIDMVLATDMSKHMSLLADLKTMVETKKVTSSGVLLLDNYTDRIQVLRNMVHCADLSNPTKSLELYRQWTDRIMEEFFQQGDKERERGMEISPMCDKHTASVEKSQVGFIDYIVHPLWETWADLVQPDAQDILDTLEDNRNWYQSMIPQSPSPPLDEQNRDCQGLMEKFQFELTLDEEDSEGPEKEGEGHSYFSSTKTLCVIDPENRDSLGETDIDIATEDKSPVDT

IC50 [nM]	Structure (SMILES)
3.16	CN1CCN(Cc2ccc(C(=O)NC3CCC(n4c(=O)c5cc(F)cnc5n(C5CCSCC5)c4=O)CC3)cc2)CC1 (stereo not shown) [Example 6, N-[4-(9-fluoro-2,4-dioxo-5-tetrahydrothiopyran-4-yl-3,5,7-triazabicyclo[4.4.0]deca-6,8,10-trien-3-yl)cyclohexyl]-4-[(4-methylpiperazin-1-yl)methyl]benzamide]
6.31	NCC1CCc2nc(C(=O)N[C@H]3CC[C@@H](n4c(=O)c5cc(F)cnc5n(C5CCSCC5)c4=O)CC3)cn2C1 (stereo partly drawn) [Example 3, 6-(aminomethyl)-N-{cis-4-[6-fluoro-2,4-dioxo-1-(tetrahydro-2H-thiopyran-4-yl)-1,4-dihydropyrido[2,3-d]pyrimidin-3(2H)-yl]cyclohexyl}-5,6,7,8-tetrahydroimidazo[1,2-a]pyridine-2-carboxamide]
0.0794	O=C(CN1CCN(Cc2ccccc2)CC1)NC1CCC(n2c(=O)c3cc(F)cnc3n(C3CCSCC3)c2=O)CC1 (stereo not shown) [Example 10, 2-(4-benzylpiperazin-1-yl)-N-[4-(9-fluoro-2,4-dioxo-5-tetrahydrothiopyran-4-yl-3,5,7-triazabicyclo[4.4.0]deca-6,8,10-trien-3-yl)cyclohexyl]acetamide]
2	O=C(CN1CCN(C(=O)Cc2ccccc2)CC1)NC1CCC(n2c(=O)c3cc(F)cnc3n(C3CCSCC3)c2=O)CC1 (stereo not shown) [Example 24, N-[4-(9-fluoro-2,4-dioxo-5-tetrahydrothiopyran-4-yl-3,5,7-triazabicyclo[4.4.0]deca-6,8,10-trien-3-yl)cyclohexyl]-2-[4-(2-phenylacetyl)piperazin-1-yl]acetamide]
